Experimental data from patent publication US20110009411A1, “THERAPEUTIC COMPOSITIONS AND THE USE THEREOF” (Gilead Sciences ,Inc., priority 2007, published 2011).

Assay: Steady-state pharmacokinetic interaction study of the Compound and lopinavir/r (LPV/r)
Assay type: in vivo, human
Details: healthy volunteers
[1] = the Compound 125 mg QD + LPV/r 400/100 mg BID vs the Compound/r 125/100 mg QD (coadministration:alone), 14-day periods, n = 14

| SMILES | Compound exposures upon coadministration with LPV/r (steady state) | AUCtau % GMR (90% CI) [1] | Cmax % GMR (90% CI) [1] | Ctau % GMR (90% CI) [1] | exposures when coadministered with the Compound (steady state) | LPV trough concentrations when coadministered with the Compound (steady state) |
| --- | --- | --- | --- | --- | --- | --- |
| COc1cc2c(cc1Cc1cccc(Cl)c1F)c(=O)c(C(=O)O)cn2[C@H](CO)C(C)C [the Compound, 6-(3-chloro-2-fluorobenzyl)-1-[(2S)-1-hydroxy-3-methylbutan-2-yl]-7-methoxy-4-oxo-1,4-dihydroquinoline-3-carboxylic acid] | substantially elevated | 175% | 152% | 238% | – | – |
| CC(C)c1nc(CN(C)C(=O)NC(C(=O)NC(Cc2ccccc2)CC(O)C(Cc2ccccc2)NC(=O)OCc2cncs2)C(C)C)cs1 (stereo not shown) [RTV, 1,3-thiazol-5-ylmethyl[3-hydroxy-5-[3-methyl-2-[methyl-[(2-propan-2-yl-1,3-thiazol-4-yl)methyl]carbamoyl]amino-butanoyl]amino-1,6-diphenyl-hexan-2-yl]aminoformate, reference compound] | – | – | – | – | unaltered | – |
| Cc1cccc(C)c1OCC(=O)N[C@@H](Cc1ccccc1)[C@@H](O)C[C@H](Cc1ccccc1)NC(=O)[C@H](C(C)C)N1CCCNC1=O [LPV, (2S)—N-[(2S,4S,5S)-5-{[2-(2,6-dimethyl-phenoxy)acetyl]amino}-4-hydroxy-1,6-diphenyl-hexan-2-yl]-3-methyl-2-(2-oxo-1,3-diazinan-1-yl)butanamide, reference compound] | – | – | – | – | unaltered | maintained above recommended target troughs |
